Experimental data published in ChEMBL document CHEMBL6096667, “Design, synthesis and biological evaluation of biaryl amide derivatives as modulators of multi-drug resistance” (Eur J Med Chem, 2025).

How the values were obtained:
A2780/Taxol [1] = assay: Inhibition of cell proliferation of human Paclitaxel-resistant A2780/T cells at 0.01 uM incubated for 48 hrs in presence of PTX by MTT assay relative to control; type: functional
A2780/Taxol [2] = assay: Inhibition of cell proliferation of human Paclitaxel-resistant A2780/T cells incubated for 48 hrs in presence of PTX by MTT assay; type: functional, cell-based
A2780/Taxol [3] = assay: Inhibition of cell proliferation of human Paclitaxel-resistant A2780/T cells at 0.1 uM incubated for 48 hrs in presence of PTX by MTT assay relative to control; type: functional
A2780/Taxol [4] = assay: Inhibition of cell proliferation of human Paclitaxel-resistant A2780/T cells at 10 uM incubated for 48 hrs in presence of PTX by MTT assay relative to control; type: functional
A2780/Taxol [5] = assay: Inhibition of cell proliferation of human Paclitaxel-resistant A2780/T cells at 1 uM incubated for 48 hrs in presence of PTX by MTT assay relative to control; type: functional
A2780/Taxol [6] = assay: Reversal of paclitaxel resistance in human Paclitaxel-resistant A2780/T cells assessed as reversal fold by measuring ratio of paclitaxel IC50 to paclitaxel IC50 in presence of test compound at 1 uM incubated for 48 hrs by MTT assay; type: functional
[7] = Inhibition of cell proliferation of human A2780/CDDP cells by MTT assay; type: functional, cell-based
[8] = Inhibition of cell proliferation of human CDDP-resistant A549 cells by MTT assay; type: functional, cell-based
[9] = Reversal of paclitaxel resistance in human A2780/CDDP cells assessed as reversal fold by measuring ratio of paclitaxel IC50 to paclitaxel IC50 in presence of test compound by MTT assay; type: functional
[10] = Reversal of paclitaxel resistance in human CDDP-resistant A549 cells assessed as reversal fold by measuring ratio of paclitaxel IC50 to paclitaxel IC50 in presence of test compound by MTT assay; type: functional, CDDP-resistant A549 cell
[11] = target: ATP-dependent translocase ABCB1 (Homo sapiens, UniProt P08183); assay: Binding affinity to CM5 sensor chip-immobilized human P-gp assessed as dissociation constant by SPR analysis
ATP-dependent translocase ABCB1, sequence (P08183 whole entry): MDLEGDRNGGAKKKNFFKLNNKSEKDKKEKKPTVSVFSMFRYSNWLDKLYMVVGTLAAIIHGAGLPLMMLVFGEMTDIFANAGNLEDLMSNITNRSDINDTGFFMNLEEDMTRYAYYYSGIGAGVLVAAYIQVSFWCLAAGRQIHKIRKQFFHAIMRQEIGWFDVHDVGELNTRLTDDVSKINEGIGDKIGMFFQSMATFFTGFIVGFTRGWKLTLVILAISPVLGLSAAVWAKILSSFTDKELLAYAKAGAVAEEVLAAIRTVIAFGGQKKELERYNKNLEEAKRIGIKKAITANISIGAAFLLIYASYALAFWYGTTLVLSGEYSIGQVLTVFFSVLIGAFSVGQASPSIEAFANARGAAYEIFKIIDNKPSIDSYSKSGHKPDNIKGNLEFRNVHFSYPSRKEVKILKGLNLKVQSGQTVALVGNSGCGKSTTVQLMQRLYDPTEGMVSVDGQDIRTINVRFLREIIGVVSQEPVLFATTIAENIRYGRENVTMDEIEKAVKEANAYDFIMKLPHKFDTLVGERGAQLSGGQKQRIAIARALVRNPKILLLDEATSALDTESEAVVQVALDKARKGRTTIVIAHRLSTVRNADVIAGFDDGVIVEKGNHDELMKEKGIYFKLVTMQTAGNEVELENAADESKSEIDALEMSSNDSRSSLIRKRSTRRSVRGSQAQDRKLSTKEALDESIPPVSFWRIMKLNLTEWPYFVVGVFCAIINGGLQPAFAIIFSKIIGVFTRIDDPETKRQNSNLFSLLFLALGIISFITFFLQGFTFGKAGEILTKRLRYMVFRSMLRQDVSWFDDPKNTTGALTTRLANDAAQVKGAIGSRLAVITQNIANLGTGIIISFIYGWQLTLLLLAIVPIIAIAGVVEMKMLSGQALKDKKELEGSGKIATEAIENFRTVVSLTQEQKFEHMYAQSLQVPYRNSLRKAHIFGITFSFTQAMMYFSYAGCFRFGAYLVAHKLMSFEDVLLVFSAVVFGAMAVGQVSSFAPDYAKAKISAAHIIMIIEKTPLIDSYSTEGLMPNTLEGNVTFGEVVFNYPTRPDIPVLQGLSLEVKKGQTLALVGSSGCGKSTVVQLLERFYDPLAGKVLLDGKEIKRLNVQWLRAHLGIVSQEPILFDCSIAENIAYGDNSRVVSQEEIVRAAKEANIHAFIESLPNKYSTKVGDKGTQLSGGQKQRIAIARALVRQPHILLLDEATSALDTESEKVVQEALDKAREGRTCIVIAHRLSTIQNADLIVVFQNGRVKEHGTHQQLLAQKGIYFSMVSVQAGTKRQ

A2780/Taxol [12] = assay: Reversal of paclitaxel resistance in human Paclitaxel-resistant A2780/T cells by MTT assay; type: functional, cell-based

Compound | IC50 (A2780/Taxol [2]) [µM] | inhibition at 0.01 µM (A2780/Taxol [1]) [%] | inhibition at 0.1 µM (A2780/Taxol [3]) [%] | inhibition at 10 µM (A2780/Taxol [4]) [%] | inhibition at 1 µM (A2780/Taxol [5]) [%] | further results
O=C(Nc1ccc(-c2ccccc2)c2nonc12)c1cccnc1 | 3.09 | 14 | 33 |  |  | 
O=C(Nc1ncc(-c2ccccc2)cc1F)c1cccnc1 | 0.32 | 11 | 50 |  |  | 
O=C(Nc1c(F)c(F)c(-c2ccccc2)c(F)c1F)c1cccnc1 | 0.8 | 25 | 46 |  |  | 
O=C(Nc1cccnc1)Nc1ccc(-c2ccccc2)cn1 | > 50 |  |  | 30 | 10 | 
N#Cc1cc(-c2ccccc2)cnc1NC(=O)c1cccnc1 | 0.08 | 35 | 59 |  |  | 
O=C(Cc1cccnc1)Nc1ccc(-c2ccccc2)cn1 | > 50 |  |  | 34 | 39 | 
O=C(Nc1ccc(-c2ccccc2)c(F)c1F)c1cccnc1 | 0.78 | 27 | 46 |  |  | 
O=C(NCc1ccc(-c2ccccc2)cn1)c1ccc2cccnc2c1 | 18.3 |  |  | 67 | 31 | 
O=C(Nc1ccc(-c2ccccc2)c2ccccc12)c1cccnc1 | 19 | 31 | 35 |  |  | 
O=C(NCc1ccc(-c2ccccc2)cn1)c1ccc(F)c(F)c1 | 20 |  |  | 46 | 22 | 
CC(=O)O[C@H]1C(=O)[C@@]2(C)[C@H]([C@H](OC(=O)c3ccccc3)[C@]3(O)C[C@H](OC(=O)[C@H](O)[C@@H](NC(=O)c4ccccc4)c4ccccc4)C(C)=C1C3(C)C)[C@]1(OC(C)=O)CO[C@@H]1C[C@@H]2O [PACLITAXEL] | 14.1 | 9 | 35 | 35 | 9 | IC50 [7]: 55.2 µM; IC50 [8]: 27.2 µM
COc1ccc(-c2ccc(CNC(=O)c3cn(C)c4ccccc34)nc2)c(OC)c1 | > 50 |  |  | 80 | 36 | Ratio IC50 (A2780/Taxol [6]): 38
O=C(NCc1ccc(-c2ccccc2)cn1)c1cncnc1 | 32.7 |  |  | 61 | 24 | 
O=C(/C=C/c1cccnc1)NCc1ccc(-c2ccccc2)cn1 | 22.1 |  |  | 38 | 33 | 
O=C(Nc1ccc(-c2ccccc2)c([N+](=O)[O-])c1)c1cccnc1 | 11.2 | 25 | 37 |  |  | 
Cn1cc(C(=O)NCc2ccc(-c3ccccc3)cn2)c2ccccc21 | > 50 |  |  | 81 | 30 | Ratio IC50 [9]: 5; Ratio IC50 [10]: 3; Kd [11]: 1.66 µM; Ratio IC50 (A2780/Taxol [6]): 18
O=C(Nc1nc(-c2ccccc2)co1)c1cccnc1 | 10.1 | 11 | 30 |  |  | 
CCCCc1ccc(-c2ccc(CNC(=O)c3cn(C)c4ccccc34)nc2)cc1 | > 50 |  |  | 52 | 37 | 
COc1ccc(CCN(C)CCCC(C#N)(c2ccc(OC)c(OC)c2)C(C)C)cc1OC (stereo unspecified) |  | 22 | 47 | 76 | 57 | 
Cn1cc(C(=O)NCc2ccc(-c3cccc4ccccc34)cn2)c2ccccc21 | > 50 |  |  | 83 | 46 | Ratio IC50 [9]: 6; EC50 (A2780/Taxol [12]): 0.126 µM; Ratio IC50 [10]: 4; Ratio IC50 (A2780/Taxol [6]): 138

Now from value to compound, other results behind:

IC50 (A2780/Taxol [2]) [µM] | Compound | inhibition at 0.01 µM (A2780/Taxol [1]) [%] | inhibition at 0.1 µM (A2780/Taxol [3]) [%] | inhibition at 10 µM (A2780/Taxol [4]) [%] | inhibition at 1 µM (A2780/Taxol [5]) [%] | further results
33.2 | O=C(Nc1ccc(-c2ccccc2)c2cccnc12)c1cccnc1 | 6 | 39 |  |  | 
> 50 | Cn1cccc1C(=O)NCc1ccc(-c2ccccc2)cn1 |  |  | 30 | 10 | 
> 50 | Cn1cc(C(=O)NCc2ccc(-c3cnc4ccccc4c3)cn2)c2ccccc21 |  |  | 76 | 46 | Ratio IC50 (A2780/Taxol [6]): 9
3.54 | O=C(Nc1ccc(-c2ccccc2)cc1OC(F)(F)F)c1cccnc1 | 31 | 42 |  |  | 
> 50 | Cn1cc(C(=O)NCc2ccc(-c3ccc(OCc4ccccc4)cc3)cn2)c2ccccc21 |  |  | 78 | 41 | Ratio IC50 (A2780/Taxol [6]): 54
> 50 | Cn1cc(C(=O)NCc2ccc(-c3ccco3)cn2)c2ccccc21 |  |  | 32 | 20 | 
30.5 | O=C(NCc1ccc(-c2ccccc2)cn1)c1cccnc1 |  |  | 65 | 32 | 
> 50 | Cn1cc(C(=O)NCc2ccc(-c3ccc(F)cc3)cn2)c2ccccc21 |  |  | 63 | 25 | 
> 50 | O=C(NCc1ccc(-c2ccccc2)cn1)c1c(F)c(F)c(F)c(F)c1F |  |  | 39 | 13 | 
22.9 | COc1cc(C(=O)NCc2ccc(-c3ccccc3)cn2)cc(OC)c1OC |  |  | 51 | 10 | 
2.11 | O=C(Nc1ncc(-c2ccccc2)cc1O)c1cccnc1 | 11 | 38 |  |  | 
> 50 | O=C(Cc1cccnc1)NCc1ccc(-c2ccccc2)cn1 |  |  | 42 | 33 | 
0.88 | O=C(Nc1ccc(-c2ccccc2)cn1)c1cccnc1 | 28 | 55 |  |  | 
13.6 | O=C(Nc1ccc(-c2ccccc2)nc1)c1cccnc1 | 9 | 33 |  |  | 
> 50 | COc1ccc(-c2ccc(CNC(=O)c3cn(C)c4ccccc34)nc2)cc1F |  |  | 71 | 40 | Ratio IC50 (A2780/Taxol [6]): 78
18.7 | O=S(=O)(Nc1ccc(-c2ccccc2)cn1)c1cccnc1 |  |  | 37 | 7 | 
> 50 | Cn1c(C(=O)NCc2ccc(-c3ccccc3)cn2)cc2ccccc21 |  |  | 37 | 11 | 
> 50 | Cn1cc(C(=O)NCc2ccc(-c3ccc4c(c3)c3ccccc3n4-c3ccccc3)cn2)c2ccccc21 |  |  | 28 | 14 | 
> 50 | O=C(NCc1ccc(-c2ccccc2)cn1)c1ccc(C(F)(F)F)nc1 |  |  | 31 | 9 | 
> 50 | Cc1ccc(C(=O)NCc2ccc(-c3ccccc3)cn2)cn1 |  |  | 35 | 12 | 
> 50 | Cn1cc(C(=O)NCc2ccc(-c3cccs3)cn2)c2ccccc21 |  |  | 80 | 6 | Ratio IC50 (A2780/Taxol [6]): 47
0.027 | O=C(Nc1ccc(-c2ccccc2)cc1[N+](=O)[O-])c1cccnc1 | 48 | 74 |  |  | 
> 50 | Cn1cc(C(=O)NCc2ccc(-c3cccc(F)c3)cn2)c2ccccc21 |  |  | 33 | 8 | 
12.6 | O=C(Nc1ccc(-c2ccccc2)cc1)c1cccnc1 | 29 | 37 |  |  | 
0.11 | O=C(Nc1ncc(-c2ccccc2)cn1)c1cccnc1 | 34 | 49 |  |  | 
> 50 | O=C(NCc1ccc(-c2ccccc2)cn1)c1ccc(Br)nc1 |  |  | 37 | 12 | 
